Experimental data published in US20190169140A1, “IDO1 INHIBITOR AND PREPARATION METHOD AND APPLICATION THEREOF” (SHANDONG LUYE PHARMACEUTICAL CO., LTD., priority 2016, published 2019).
pIC50: −log10 of the molar value. Converted amounts (≈) assume the structure as drawn. Read-outs that look alike come from different tables or passages of the source.

What was measured:
[1] = Measurement of thermodynamic solubility; type: physicochemical; conditions: aqueous buffer, thermodynamic from solid, room temperature
Method: II. Measurement of Thermodynamic Solubility
1. Solutions for Thermodynamic Solubility
Buffer A (pH 2.0): 50 mM phosphate buffer, with a pH value of 2.0.
Buffer B (pH 7.4): 50 mM phosphate buffer, with a pH value of 7.4.
50% acetonitrile solution and 50% buffer (A, B) were mixed together to obtain a diluent. 10 mM (20 μL/compound) stock solution was added to acetonitrile (480 μL/compound), and mixed with the buffer (A, B) (500 μL/compound) to obtain 200 μM UV detection standard solution. The 200 μM UV detection standard solution was diluted with the diluent 10 times or 200 times the amount of the standard solution, so as to acquire 20 μM or 1 μM UV standard solution. 1, 20, and 200 μM UV standard solutions were taken as standard samples for thermodynamic solubility test.
No less than 2 mg of a sample powder was weighed and placed in a Whatman miniuniprep vial. If it was required to test the thermodynamic solubility of the sample in multiple buffers (A, B), an independent vial was demanded for each test. 450 μL of the buffer (A, B) was respectively added to each Whatman miniuniprep vial. After the buffer was added, a piston cover of the Whatman miniuniprep functioning to filter was put on and pressed above a liquid surface, such that a filter screen was in contact with the buffer (A, B) during the shaking. The solubility sample was shaken in a vortex manner for 1 minute, and phenomenon of the solution was recorded. The sample was shaken at 600 rpm at a room temperature (approximately 22˜25° C.) for 24 hours. The filtering cover of Whatman Miniunipreps was pressed to a bottom, to obtain a filtrate of the sample solubility solution. All sample vials should be recorded for insoluble substances before and after the filtration and leakage phenomenon thereof. The buffer (A, B) was 50-fold diluted to obtain a sample diluent.
3 UV standard solutions, from low concentration to high concentration, were injected into HPLC, and then the diluent and the supernatant of the compound to be tested were injected. The sample to be tested was in duplicate. Integration was carried out for UV chromatographic peaks. A standard curve was established by simulation and the thermodynamic solubility of the sample was calculated. HPLC conditions were as follows.

[2] = target: T1, recombinant human IDO1 enzyme (Homo sapiens, UniProt P14902); experiment: Test of hIDO1 for enzymatic activity in vitro (NFK Green fluorescence); type: biochemical
T1 construct: purchased NTRC (Netherlands Translational Research Center) NTRC-hIDO-10K
Method: 1. Test of hIDO1 for Enzymatic Activity In Vitro
1.1 Purpose of Experiment:
Changes in production of NFK, an IDO1 enzymatic metabolite were detected with NFK Green™ fluorescent molecules. With an IC50 value of a compound as an index, an inhibitory effect of the compound on recombinant human IDO1 enzyme was evaluated.
The compound was diluted with dimethyl sulfoxide (DMSO) to 1 mM, with 10 gradients, each 3-fold dilution, in duplicate. 48 μL of 50 mM phosphate buffer, having pH of 6.5, was transferred by the Bravo automatic liquid processing platform to the compound plate. Then 2 μL of an already diluted compound/DMSO solution was added. After even mixing, 10 μL of the resultant mixture was transferred to the enzymatic reaction plate.
IDO1 enzyme was diluted to 20 nM in a reaction buffer (50 mM phosphate buffer with pH of 6.5, 0.1% of Tween-20, 2% of glycerol, 20 mM ascorbic acid, 20 μg/ml catalase, and 20 μM methylene blue), 20 μL of the diluted IDO1 enzyme was transferred to the enzymatic reaction plate, and incubated at 23° C. for 30 minutes. 10 μL of 400 μM L-type tryptophan substrate was added to start reaction. The incubation lasted at 23° C. for 90 minutes. 10 μL of NFK Green™ fluorescent dye was added. The resultant mixture was sealed with the plate sealing film. After incubation at 37° C. for 4 hours, an Envision multi-functional plate reader was used for reading (Ex 400 nm/Em 510 nm).
A reference well to which the IDO1 enzyme was added but no compound was added was set to have an inhibition rate of 0%, and a reference well to which no IDO1 enzyme was added was set to have an inhibition rate of 100%. Data was analyzed with XLFit 5 to calculate an IC50 value of the compound.

[3] = Test for permeability across MDR1; type: in vitro ADME; conditions: dog, MDCK-MDR1
Method: Test for Permeability Across MDR1
A sample for test was dissolved in dimethyl sulfoxide (DMSO) or other suitable solvents, to be prepared into 10 mM stock solution. A suitable internal standard (IS) was dissolved in acetonitrile (ACN) or other organic solvents as a stop solution. Specific information would be described in a research report.
Fenoterol, propranolol, and digoxin acted as low-permeability control, high-permeability control, and P-gp substrate in the present research. The stock solutions of these compounds were prepared with DMSO, stocked at 2-8° C., and valid for use within 3 months.
In the present project, a Hank's balanced salt buffer containing 10 mM HEPES was used as a transport buffer.
MDR1-MDCK II cells were cultivated using α-MEM culture media (α-Minimum Essential Media), with a culture condition of 37±1° C., 5% CO2, and saturated relative humidity. Afterwards, the cells were inoculated into a BD Transwell-96-well plate (BD Gentest), with an inoculation density of 2.3×10^5 cells/cm^2, then the cells were placed in a carbon dioxide incubator to be incubated for 4-7 days, and then used for a transport experiment.
A solution to be used was placed in a 37±1° C. water bath kettle to be pre-incubated for 30 minutes. The donor solution and the receiver solution were respectively added to corresponding sides of wells of cell plate (to an apical side and a basolateral side, 75 μL and 250 μL of samples were added respectively), and experiment of bidirectional transport was started. After the addition of the samples, the cell plate was placed in a 37±1° C., 5% CO2 incubator with saturated relative humidity to be incubated for 150 minutes.
The samples were all centrifuged at 3220 g for 10 minutes after being shaken in a vortex manner. A suitable volume of a supernatant was transferred to a sample analyzing plate. If analysis was not carried out immediately after the plate was sealed, the plate was stored at 2-8° C. The analysis was carried out through a method of LC/MS/MS.
The sample for test, fenoterol control, propranolol control, and digoxin were analyzed in a semiquantitative manner, and specific values of analytes to a peak area of the internal standard were taken as concentration of the controls.

[4] = 50 mM phosphate buffer pH 2.0, 24 hours, read-out: thermodynamic solubility (pH: 2.0)
[5] = 50 mM phosphate buffer pH 7.4, 24 hours, read-out: thermodynamic solubility (pH: 7.4)

T1 sequence (P14902 whole entry): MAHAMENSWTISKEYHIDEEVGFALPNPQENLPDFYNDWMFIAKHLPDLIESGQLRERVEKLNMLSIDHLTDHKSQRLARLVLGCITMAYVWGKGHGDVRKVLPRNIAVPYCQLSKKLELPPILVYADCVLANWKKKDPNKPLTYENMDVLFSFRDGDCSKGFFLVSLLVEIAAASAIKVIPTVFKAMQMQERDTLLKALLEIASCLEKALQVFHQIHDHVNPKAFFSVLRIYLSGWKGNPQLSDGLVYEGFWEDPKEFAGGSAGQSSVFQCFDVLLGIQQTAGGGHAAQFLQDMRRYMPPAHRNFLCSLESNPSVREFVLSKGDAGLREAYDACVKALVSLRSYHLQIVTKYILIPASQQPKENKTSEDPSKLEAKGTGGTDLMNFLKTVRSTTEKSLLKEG

Compound NS(=O)(=O)NCCSc1nonc1/C(=N/O)Nc1ccc(F)c(Br)c1 [Compound 0117] has a solubility thermodynamic at 24 h [1, 4] of 2620 µM (≈ 1190 µg/mL), a solubility thermodynamic at 24 h [1, 5] of 2610 µM (≈ 1190 µg/mL) and a pIC50 [2] of 7.58. For the same compound, the Papp A→B at 150 min, 2 µM [3] was 3.2 ×10⁻⁶ cm/s and the Papp B→A at 150 min, 2 µM [3] was 11.3 ×10⁻⁶ cm/s.
For NS(=O)(=O)NCCNc1nonc1C(=NO)Nc1ccc(F)c(Br)c1 [Compound 360, INCB024360, reference compound], the solubility thermodynamic at 24 h [1, 4] was 65 µM (≈ 28.5 µg/mL), the solubility thermodynamic at 24 h [1, 5] was 160 µM (≈ 70.1 µg/mL) and the Papp A→B at 150 min, 2 µM [3] was 1.61 ×10⁻⁶ cm/s. The Papp B→A at 150 min, 2 µM [3] was 13.3 ×10⁻⁶ cm/s.
Work on NS(=O)(=O)NCCOc1nonc1/C(=N/O)Nc1ccc(F)c(Br)c1 [Compound 0015] yielded a solubility thermodynamic at 24 h [1, 4] of 138 µM (≈ 60.6 µg/mL), a solubility thermodynamic at 24 h [1, 5] of 298 µM (≈ 131 µg/mL) and a pIC50 [2] of 6.94. It also gave a Papp A→B at 150 min, 2 µM [3] of 1.76 ×10⁻⁶ cm/s and a Papp B→A at 150 min, 2 µM [3] of 13.6 ×10⁻⁶ cm/s.
In the case of NC(=O)NCCSc1nonc1/C(=N/O)Nc1ccc(F)c(Br)c1 [Compound 0231], the solubility thermodynamic at 24 h [1, 4] was 155 µM (≈ 65 µg/mL), the solubility thermodynamic at 24 h [1, 5] was 125 µM (≈ 52.4 µg/mL) and the pIC50 [2] was 7.37. It also gave a Papp A→B at 150 min, 2 µM [3] of 3.79 ×10⁻⁶ cm/s and a Papp B→A at 150 min, 2 µM [3] of 17.9 ×10⁻⁶ cm/s.
CC(=O)NCCSc1nonc1/C(=N/O)Nc1ccc(F)c(Br)c1 [Compound 0227] showed a pIC50 [2] of 7.23, a Papp A→B at 150 min, 2 µM [3] of 12.5 ×10⁻⁶ cm/s and a Papp B→A at 150 min, 2 µM [3] of 18 ×10⁻⁶ cm/s.
